System: Myzus persicae
Assay: Myzus persicae test (cabbage leaf dip)
Assay type: in vivo
Description: The expected activity for a given combination of two active compounds can be calculated (cf. COLBY, S. R.; “Calculating Synergistic and Antagonistic Responses of Herbicide Combinations”, Weeds 15, pages 20-22, 1967):
if • X=the kill rate, expressed in % of the untreated control, when employing active compound A at an application rate of m ppm, • Y=the kill rate, expressed in % of the untreated control, when employing active compound B at an application rate of n ppm, • E=the kill rate, expressed in % of the untreated control, when employing active compounds A and B at application rates of m and n ppm, then
If the actual insecticidal kill rate is higher than the calculated one, the kill rates of the combination are superadditive, i.e. a synergistic effect is present. In this case, the kill rate that is actually observed has to be higher than the value, calculated using the formula above, for the expected kill rate (E).
To produce a suitable preparation of active compound, 1 part by weight of active compound is mixed with the stated amounts of solvent and emulsifier, and the concentrate is diluted with emulsifier-containing water to the desired concentration. […]
After the desired period of time, the kill in % is determined. […] The determined kill rates are entered into Colby's formula (see page 27).

Q: `CN/C(=N\[N+](=O)[O-])NCc1cnc(Cl)s1` [Clothianidin] was tested. Which “Kill in % after 6d” value (0.16 ppm, cabbage leaves dipped, after 6 d) did it give?
A: 0%

Q: How did the “Kill in % after 1d” value (0.8 ppm, cabbage leaves (Brassica oleracea) dipped, after 1 d) turn out when `N#C/N=C1\SCCN1Cc1ccc(Cl)nc1` [Thiacloprid] was run?
A: 30%
